Results reported in ChEMBL document CHEMBL4610038, “The synthesis of trifluoromethylated N-nitroaryl-2-amino-1,3-dichloropropane derivatives and their evaluation as potential anti-cancer agents” (Bioorg Med Chem Lett, 2020).

Columns and labels:
HCT-116 [1] = test: Cytotoxicity against human HCT116 cells assessed as cell viability at 100 uM relative to control; type: functional; settings: read-out: Activity
ASPC1 [2] = test: Cytotoxicity against human AsPC1 cells assessed as reduction in cell viability; type: functional, cell-based
A549 [3] = test: Cytotoxicity against human A549 cells assessed as reduction in cell viability; type: functional, cell-based
MCF-10A = test: Cytotoxicity against human MCF10A cells assessed as reduction in cell viability; type: cell-based
Caco-2 [4] = test: Cytotoxicity against human Caco2 cells assessed as reduction in cell viability; type: functional, cell-based
SW48 [5] = test: Cytotoxicity against human SW48 cells assessed as reduction in cell viability; type: functional, cell-based
HCT-116 [6] = test: Cytotoxicity against human HCT116 cells assessed as reduction in cell viability; type: functional, cell-based
Caco-2 [7] = test: Cytotoxicity against human Caco2 cells assessed as cell viability at 100 uM relative to control; type: functional; settings: read-out: Activity
SUNE1 [8] = test: Cytotoxicity against human SUNE1 cells assessed as cell viability at 100 uM relative to control; type: functional; settings: read-out: Activity
T47D [9] = test: Cytotoxicity against human T47D cells assessed as reduction in cell viability; type: functional, cell-based
CNE [10] = test: Cytotoxicity against human CNE1 cells assessed as reduction in cell viability; type: functional, cell-based
SW48 [11] = test: Cytotoxicity against human SW48 cells assessed as cell viability at 100 uM relative to control; type: functional; settings: read-out: Activity
SK-BR-3 [12] = test: Cytotoxicity against human SKBR3 cells assessed as cell viability at 100 uM relative to control; type: functional; settings: read-out: Activity
SH-SY5Y [13] = test: Cytotoxicity against human SH-SY5Y cells assessed as cell viability at 100 uM relative to control; type: functional; settings: read-out: Activity
HT-29 [14] = test: Cytotoxicity against human HT-29 cells assessed as reduction in cell viability; type: functional, cell-based
CNE [15] = test: Cytotoxicity against human CNE1 cells assessed as cell viability at 100 uM relative to control; type: functional; settings: read-out: Activity
[16] = Cytotoxicity against human MCF10A cells assessed as cell viability at 100 uM relative to control; type: cell-based, MCF-10A; settings: read-out: Activity
MDA-MB-468 [17] = test: Cytotoxicity against human MDA-MB-468 cells assessed as reduction in cell viability; type: functional, cell-based
SK-BR-3 [18] = test: Cytotoxicity against human SKBR3 cells assessed as reduction in cell viability; type: functional, cell-based
[19] = Cytotoxicity against human HK1 cells assessed as cell viability at 100 uM relative to control; type: functional; settings: HK-1, read-out: Activity
[20] = Cytotoxicity against human MRC5 cells assessed as cell viability at 100 uM relative to control; type: cell-based; settings: read-out: Activity
MCF7 [21] = test: Cytotoxicity against human MCF7 cells assessed as reduction in cell viability; type: functional, cell-based
A549 [22] = test: Cytotoxicity against human A549 cells assessed as cell viability at 100 uM relative to control; type: functional; settings: read-out: Activity
SUNE1 [23] = test: Cytotoxicity against human SUNE1 cells assessed as reduction in cell viability; type: functional, cell-based
SW1990 [24] = test: Cytotoxicity against human SW1990 cells assessed as cell viability at 100 uM relative to control; type: functional; settings: read-out: Activity
MDA-MB-231 [25] = test: Cytotoxicity against human MDA-MB-231 cells assessed as reduction in cell viability; type: functional, cell-based
MRC5 = test: Cytotoxicity against human MRC5 cells assessed as reduction in cell viability; type: cell-based
MCF7 [26] = test: Cytotoxicity against human MCF7 cells assessed as cell viability at 100 uM relative to control; type: functional; settings: read-out: Activity
[27] = Cytotoxicity against human HK1 cells assessed as reduction in cell viability; type: functional, cell-based; settings: HK-1
ASPC1 [28] = test: Cytotoxicity against human AsPC1 cells assessed as cell viability at 100 uM relative to control; type: functional; settings: read-out: Activity
NCI-H1299 [29] = test: Cytotoxicity against human H1299 cells assessed as cell viability at 100 uM relative to control; type: functional; settings: read-out: Activity
HT-29 [30] = test: Cytotoxicity against human HT-29 cells assessed as cell viability at 100 uM relative to control; type: functional; settings: read-out: Activity
BXPC-3 [31] = test: Cytotoxicity against human BxPC3 cells assessed as reduction in cell viability; type: functional, cell-based
MDA-MB-231 [32] = test: Cytotoxicity against human MDA-MB-231 cells assessed as cell viability at 100 uM relative to control; type: functional; settings: read-out: Activity
SW1990 [33] = test: Cytotoxicity against human SW1990 cells assessed as reduction in cell viability; type: functional, cell-based
BXPC-3 [34] = test: Cytotoxicity against human BxPC3 cells assessed as cell viability at 100 uM relative to control; type: functional; settings: read-out: Activity
SH-SY5Y [35] = test: Cytotoxicity against human SH-SY5Y cells assessed as reduction in cell viability; type: functional, cell-based
MDA-MB-468 [36] = test: Cytotoxicity against human MDA-MB-468 cells assessed as cell viability at 100 uM relative to control; type: functional; settings: read-out: Activity
T47D [37] = test: Cytotoxicity against human T47D cells assessed as cell viability at 100 uM relative to control; type: functional; settings: read-out: Activity
NCI-H1299 [38] = test: Cytotoxicity against human H1299 cells assessed as reduction in cell viability; type: functional, cell-based

SMILES	viability at 100 µM (HCT-116 [1])	IC50 (ASPC1 [2])	IC50 (A549 [3])	IC50 (MCF-10A)	IC50 (Caco-2 [4])	IC50 (SW48 [5])	IC50 (HCT-116 [6])	viability at 100 µM (Caco-2 [7])	viability at 100 µM (SUNE1 [8])	IC50 (T47D [9])	IC50 (CNE [10])	viability at 100 µM (SW48 [11])	viability at 100 µM (SK-BR-3 [12])	viability at 100 µM (SH-SY5Y [13])	IC50 (HT-29 [14])	viability at 100 µM (CNE [15])	viability at 100 µM [16]	IC50 (MDA-MB-468 [17])	IC50 (SK-BR-3 [18])	viability at 100 µM [19]	further results
O=[N+]([O-])c1ccc(NC(CO)CO)cc1	89.7%	> 100 µM	> 100 µM	> 100 µM	> 100 µM	> 100 µM	> 100 µM	101%	109%	> 100 µM	> 100 µM	95.3%	93.1%	99.9%	> 100 µM	104%	103%	> 100 µM	> 100 µM	99.6%	viability at 100 µM [20]: 32.2%; IC50 (MCF7 [21]): > 100 µM; viability at 100 µM (A549 [22]): 96.7%; IC50 (SUNE1 [23]): > 100 µM; viability at 100 µM (SW1990 [24]): 87.5%; IC50 (MDA-MB-231 [25]): > 100 µM; IC50 (MRC5): 60.2 µM; viability at 100 µM (MCF7 [26]): 65.6%; IC50 [27]: > 100 µM; viability at 100 µM (ASPC1 [28]): 96.4%; viability at 100 µM (NCI-H1299 [29]): 92.7%; viability at 100 µM (HT-29 [30]): 96.3%; IC50 (BXPC-3 [31]): > 100 µM; viability at 100 µM (MDA-MB-231 [32]): 87.7%; IC50 (SW1990 [33]): > 100 µM; viability at 100 µM (BXPC-3 [34]): 100%; IC50 (SH-SY5Y [35]): > 100 µM; viability at 100 µM (MDA-MB-468 [36]): 102%; viability at 100 µM (T47D [37]): 73.6%; IC50 (NCI-H1299 [38]): > 100 µM
O=[N+]([O-])c1ccc(NC(CO)CO)c(C(F)(F)F)c1	84.9%	> 100 µM	> 100 µM	> 100 µM	> 100 µM	> 100 µM	> 100 µM	101%	52.4%	> 100 µM	> 100 µM	61.8%	75.2%	74.7%	> 100 µM	82.5%	88.8%	> 100 µM	> 100 µM	90.4%	viability at 100 µM [20]: 74.9%; IC50 (MCF7 [21]): 88.3 µM; viability at 100 µM (A549 [22]): 99.6%; IC50 (SUNE1 [23]): > 100 µM; viability at 100 µM (SW1990 [24]): 72.4%; IC50 (MDA-MB-231 [25]): > 100 µM; IC50 (MRC5): > 100 µM; viability at 100 µM (MCF7 [26]): 45.7%; IC50 [27]: > 100 µM; viability at 100 µM (ASPC1 [28]): 84.7%; viability at 100 µM (NCI-H1299 [29]): 93.1%; viability at 100 µM (HT-29 [30]): 84.2%; IC50 (BXPC-3 [31]): > 100 µM; viability at 100 µM (MDA-MB-231 [32]): 93.1%; IC50 (SW1990 [33]): > 100 µM; viability at 100 µM (BXPC-3 [34]): 109%; IC50 (SH-SY5Y [35]): > 100 µM; viability at 100 µM (MDA-MB-468 [36]): 93.2%; viability at 100 µM (T47D [37]): 59.1%; IC50 (NCI-H1299 [38]): > 100 µM
O=[N+]([O-])c1ccc(NC(CCl)CCl)c([N+](=O)[O-])c1	73.1%	> 100 µM	> 100 µM	> 100 µM	> 100 µM	> 100 µM	> 100 µM	105%	68.6%	85.3 µM	> 100 µM	55.2%	71.6%	63.6%	> 100 µM	70.5%	78.8%	> 100 µM	> 100 µM	88.9%	viability at 100 µM [20]: 24.3%; IC50 (MCF7 [21]): 44.3 µM; viability at 100 µM (A549 [22]): 59.4%; IC50 (SUNE1 [23]): > 100 µM; viability at 100 µM (SW1990 [24]): 69.8%; IC50 (MDA-MB-231 [25]): > 100 µM; IC50 (MRC5): 54.1 µM; viability at 100 µM (MCF7 [26]): 25.1%; IC50 [27]: > 100 µM; viability at 100 µM (ASPC1 [28]): 106%; viability at 100 µM (NCI-H1299 [29]): 96.3%; viability at 100 µM (HT-29 [30]): 89.1%; IC50 (BXPC-3 [31]): > 100 µM; viability at 100 µM (MDA-MB-231 [32]): 83.4%; IC50 (SW1990 [33]): > 100 µM; viability at 100 µM (BXPC-3 [34]): 103%; IC50 (SH-SY5Y [35]): > 100 µM; viability at 100 µM (MDA-MB-468 [36]): 61.3%; viability at 100 µM (T47D [37]): 58.7%; IC50 (NCI-H1299 [38]): > 100 µM
